Consider 39 molecules from ChEMBL document CHEMBL3507680, “University of Dundee, Gates Library screen for HepG2 cell viability”.

Molecules are shown by their SMILES.

This data set is described as follows: Human HepG2 cell viability assay in 384 well format. Further details: dose 125 nL, time 70.5 hour; concentration not given beside the values. It is filed as toxicity, cell-based. To be noted: HepG2 cells, read-out: Inhibition.
As for `O=C(c1ccoc1)N1CC[C@@H]2O[C@@H](COCc3ccccn3)CC[C@@H]21`, the cytotoxicity at 70.5 h was -3.1%.

As to `O=C(CCC1CCN(C2CSCCSC2)CC1)NCC1CCCO1` (centres undefined), the cytotoxicity at 70.5 h was -7.42%.

In the case of `CC(NC(=O)NCC(C)(C)C(N)=O)c1nc(-c2ccccc2)cs1` (centres undefined), the cytotoxicity at 70.5 h is -5.18%.

With `CCc1nc(CN2CCCC(NCc3nc4ccccc4o3)C2)no1` (centres undefined), the cytotoxicity at 70.5 h is -1.56%.

Take `CCNC(=O)c1ccc(NC2CCOC3(CCCCC3)C2)nn1` (centres undefined): the cytotoxicity at 70.5 h turned out to be 16.8%.

As to `O=C1C[C@H]2[C@@H](CCN2C(=O)Cc2ccccc2)N1Cc1cccnc1`, the cytotoxicity at 70.5 h was -8.76%.

For `Cc1ccc2c(c1)OC(C)CN2C(=O)Cc1ccc(C)nc1` (centres undefined), the cytotoxicity at 70.5 h was -0.93%.

For `CCc1noc(C2CCCCN2C(=O)c2sccc2C)n1` (centres undefined), the cytotoxicity at 70.5 h is 12.2%.

With `CCNC(=O)c1cnc(Sc2nccn2C)c(Cl)c1`, the cytotoxicity at 70.5 h was -2.03%.

Regarding `CN(C)c1nc2c(c(N3CCC(O)CC3)n1)CN(CC1CCNC1)CC2` (centres undefined), the cytotoxicity at 70.5 h was -11.3%.

Take `CCc1ccc(CN2CCNC(C(=O)N3CCN(C)CC3)C2)o1` (centres undefined): the cytotoxicity at 70.5 h was -3.44%.

As for `O=S(=O)(C1CC1)N1CCC2(CN(c3ccccn3)C2)C1`, the cytotoxicity at 70.5 h was -7.95%.

On to `Cc1ccc(-c2ccnc(N3CCC4(CC3)CNC(=O)O4)n2)c(C)n1`, for which the cytotoxicity at 70.5 h is -9.43%.

On to `COC(=O)c1ccc2ccn(CC3CCNC3)c(=O)c2c1` (centres undefined), for which the cytotoxicity at 70.5 h is -1.63%.

`Cc1cc(N2CCOCC2)ccc1NC(C)c1nc(C(C)C)no1` (centres undefined): the cytotoxicity at 70.5 h was -0.714%.

Consider `O=C(c1cc2cc(F)ccc2[nH]1)N1CCC(Nc2cccnn2)CC1`, for which the cytotoxicity at 70.5 h came out at 24.4%.

Turning to `CCOCc1cccc(S(=O)(=O)Nc2ccn(CC)n2)c1`, the cytotoxicity at 70.5 h is -0.0962%.

As to `CC(Cn1cccn1)NC(=O)N1CCC(NS(C)(=O)=O)CC1` (centres undefined), the cytotoxicity at 70.5 h was -17.2%.

For the molecule `COCC1COCCC12CCN(Cc1cccs1)CC2` (centres undefined), the cytotoxicity at 70.5 h is -7.86%.

As for `COc1ccc(CN2C[C@@H](CN(C)C)[C@@H](CO)C2)cc1OC`, the cytotoxicity at 70.5 h is -3.1%.

Consider `Cc1ncsc1-c1nnc(C2CCN(Cc3ccc(F)cc3)CC2)o1`, for which the cytotoxicity at 70.5 h is 8.74%.

For `Cc1nocc1C(=O)N1CCc2c(CN(C)C(C)C)n[nH]c2C1`, the cytotoxicity at 70.5 h was -8.09%.

As to `O=C(N1CCCC1)N1CC[C@H]2[C@H]1CCN2c1ncccn1`, the cytotoxicity at 70.5 h was -3.91%.

`CCn1c(C)nc2cc(NC(=O)CC3CCCCO3)ccc21` (centres undefined): the cytotoxicity at 70.5 h is -7.28%.

With `CC(C)C(=O)N1CC[C@@H]2CN(Cc3ccncc3)S(=O)(=O)[C@@H]2CC1`, the cytotoxicity at 70.5 h was -3.99%.

As to `Cc1nc(C(C)C)sc1C(=O)NCCNc1ncccn1`, the cytotoxicity at 70.5 h was -10.9%.

For the molecule `C=C(C)CN(CC)Cc1nc(CC)no1`, the cytotoxicity at 70.5 h is -8.43%.

In the case of `N#Cc1ccc(CS(=O)(=O)NC(=O)COc2ccc3c(c2)CCC3)cc1`, the cytotoxicity at 70.5 h is -5.23%.

As to `O=C1CCCN1CC1CN(CC2CCOCC2)Cc2nccn2C1` (centres undefined), the cytotoxicity at 70.5 h was -2.55%.

For `CN(C(=O)CN1CCCC1Cc1ccccc1)c1ccccc1` (centres undefined), the cytotoxicity at 70.5 h was -7.08%.

In the case of `CN(CC1(C)COC1)C(=O)c1cc(-c2ccnn2C)nc2ccccc12`, the cytotoxicity at 70.5 h is -0.845%.

Regarding `CN1CC(NC(=O)Cc2csc(C(C)(C)C)n2)CCC1=O` (centres undefined), the cytotoxicity at 70.5 h was determined as 20.1%.

Turning to `Cc1ncc(C)c(N2CCC(CCc3ccccc3)(C(=O)O)CC2)n1`, the cytotoxicity at 70.5 h is -10.1%.

As for `CO[C@@H]1CC[C@@H](N(C)C(=O)COc2ccc(F)cc2)[C@H]1O`, the cytotoxicity at 70.5 h was -28.5%.

For `COCCNC(=O)NCc1ccc(-n2ccc(C(F)(F)F)n2)cc1`, the cytotoxicity at 70.5 h is -7.44%.

Turning to `CCN(CC1CCOC1)C(=O)Nc1ccc(N2CCOCC2)nc1` (centres undefined), the cytotoxicity at 70.5 h turned out to be 18.9%.

In the case of `Cc1nc2c(c(NC(C)C)n1)CCN(C(=O)CCO)CC2`, the cytotoxicity at 70.5 h was -14.4%.

For `CCn1cc(CNC(C)c2noc(-c3ccc(Cl)cc3)n2)cn1` (centres undefined), the cytotoxicity at 70.5 h is -3.37%.

On to `CC(C)COCC1CN(Cc2ccsc2)Cc2ncn(C)c21` (centres undefined), for which the cytotoxicity at 70.5 h was -9.98%.
